# According to patent US20230113037A1 (Bayer Aktiengesellschaft, priority 2019, published 2023):
# pIC50: −log10 of the molar value.
# Biological target: T1, AHR (Mus musculus, UniProt P30561)
# T1 sequence (P30561 1-848 P471L/N533S/M589L): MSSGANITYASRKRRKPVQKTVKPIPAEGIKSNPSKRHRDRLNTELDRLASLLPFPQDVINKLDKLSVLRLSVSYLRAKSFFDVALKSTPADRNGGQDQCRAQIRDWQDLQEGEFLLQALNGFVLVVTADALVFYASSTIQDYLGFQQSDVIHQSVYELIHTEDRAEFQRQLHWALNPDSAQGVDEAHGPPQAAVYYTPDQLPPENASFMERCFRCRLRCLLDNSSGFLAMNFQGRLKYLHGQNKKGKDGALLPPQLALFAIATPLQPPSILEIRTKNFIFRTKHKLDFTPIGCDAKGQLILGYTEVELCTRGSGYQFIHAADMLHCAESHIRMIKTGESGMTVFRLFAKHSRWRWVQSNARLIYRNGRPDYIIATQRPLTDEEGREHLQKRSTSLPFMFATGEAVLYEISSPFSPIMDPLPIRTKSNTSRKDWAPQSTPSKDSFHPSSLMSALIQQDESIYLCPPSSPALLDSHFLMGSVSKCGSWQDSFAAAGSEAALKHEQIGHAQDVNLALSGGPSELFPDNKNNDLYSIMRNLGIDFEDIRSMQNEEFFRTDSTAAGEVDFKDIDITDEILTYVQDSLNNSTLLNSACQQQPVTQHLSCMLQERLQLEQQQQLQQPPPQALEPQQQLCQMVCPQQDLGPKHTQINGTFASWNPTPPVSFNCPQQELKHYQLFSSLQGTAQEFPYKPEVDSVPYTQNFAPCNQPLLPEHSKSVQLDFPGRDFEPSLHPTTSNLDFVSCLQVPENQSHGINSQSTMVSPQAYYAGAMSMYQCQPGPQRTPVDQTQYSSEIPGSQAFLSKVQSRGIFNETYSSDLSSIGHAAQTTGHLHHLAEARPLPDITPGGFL
# Test: In vitro assay 3: antagonism in mouse cell line (AHR transactivation, firefly luciferase reporter, kynurenic acid prestimulated)
# Assay type: cell-based
# Conditions: Hepa 1c1c7 cells, 200 μM kynurenic acid, 20 hours, firefly luciferase reporter, read-out: AHR Antagonism Mouse IC50
# Protocol: Examples were tested in selected biological assays one or more times. When tested more than once, data are reported as either average values or as median values, wherein • the average value, also referred to as the arithmetic mean value, represents the sum of the values obtained divided by the number of times tested, and • the median value represents the middle number of the group of values when ranked in ascending or descending order. If the number of values in the data set is odd, the median is the middle value. If the number of values in the data set is even, the median is the arithmetic mean of the two middle values.
# In addition the cells were stably transfected with an AHR inducible firefly luciferase reporter gene construct that carried AHR-binding sites (DRE) in its promoter. Kynurenic acid is an endogenous AHR activating ligand and was used to prestimulate test cells prior to testing the antagonistic properties of compounds.
# As positive inhibition control cells without addition of kynurenic acid were incubated. Normalization was done by positive and negative controls.
# Firefly luciferase activity was determined by the SteadyGlo Luciferase Assay System (Promega, #E2550).
row,pIC50,SMILES
1,6.11,"C[C@@H](Nc1nc2c(Br)cccc2c2nc(-c3cnn(C)c3)nn12)C(=O)NCCCN(C)C [Example 810, N^2-[7-bromo-2-(1-methyl-1H-pyrazol-4-yl)[1,2,4]triazolo[1,5-c]quinazolin-5-yl]-N-[3-(dimethylamino)propyl]-D-alaninamide]"
2,9.39,"O=C1NCCCC[C@H]1Nc1nc2c(Br)cccc2c2nc(-c3cnn(C(F)F)c3)nn12 [Example 827, (3R)-3-({7-bromo-2-[1-(difluoromethyl)-1H-pyrazol-4-yl][1,2,4]triazolo[1,5-c]quinazolin-5-yl}amino)azepan-2-one]"
3,7.33,"COc1ccc(-c2nc3c4cccc(N(C)C)c4nc(N[C@@H]4CCCCNC4=O)n3n2)cc1 [Example 829, (3R)-3-{[7-(dimethylamino)-2-(4-methoxyphenyl)[1,2,4]triazolo[1,5-c]quinazolin-5-yl]amino}azepan-2-one]"
4,< 4.70,"O=C1NCCCC[C@H]1Nc1nc2c(Br)cccc2c2nc(-c3ccc(Cl)cc3)nn12 [Example 830, (3R)-3-{[7-bromo-2-(4-chlorophenyl)[1,2,4]triazolo[1,5-c]quinazolin-5-yl]amino}azepan-2-one]"
5,8.34,"O=C1NCCNC[C@@H]1Nc1nc2c(Cl)cccc2c2nc(-c3ccc(F)cc3)nn12 [Example 964, (6S)-6-{[7-chloro-2-(4-fluorophenyl)[1,2,4]triazolo[1,5-c]quinazolin-5-yl]amino}-1,4-diazepan-5-one]"
6,7.92,"O=C1NCCNC[C@@H]1Nc1nc2ccccc2c2nc(-c3ccc(F)cc3)nn12 [Example 965, (6S)-6-{[2-(4-fluorophenyl)[1,2,4]triazolo[1,5-c]quinazolin-5-yl]amino}-1,4-diazepan-5-one]"
7,7.28,"COc1ccc(-c2nc3c4cccc(C)c4nc(N[C@H]4CNCCNC4=O)n3n2)cc1 [Example 970, (6S)-6-{[2-(4-methoxyphenyl)-7-methyl[1,2,4]triazolo[1,5-c]quinazolin-5-yl]amino}-1,4-diazepan-5-one]"
8,8.08,"O=C1NCCNC[C@@H]1Nc1nc2c(Br)cccc2c2nc(-c3ccc(F)cc3)nn12 [Example 973, (6S)-6-{[7-bromo-2-(4-fluorophenyl)[1,2,4]triazolo[1,5-c]quinazolin-5-yl]amino}-1,4-diazepan-5-one]"
9,9.39,"O=C1NCCNC[C@H]1Nc1nc2c(Br)cccc2c2nc(-c3ccc(Cl)cc3)nn12 [Example 977, (6R)-6-{[7-bromo-2-(4-chlorophenyl)[1,2,4]triazolo[1,5-c]quinazolin-5-yl]amino}-1,4-diazepan-5-one]"

row,SMILES,pIC50
1,"C[C@@H](Nc1nc2ccccc2c2nc(-c3ccccc3OC(F)(F)F)nn12)C(=O)NCCN(C)C [Example 792, N-[2-(dimethylamino)ethyl]-N^2-{2-[2-(trifluoromethoxy)phenyl][1,2,4]triazolo[1,5-c]quinazolin-5-yl}-D-alaninamide]",7.54

# Same assay, conditions: mouse Hepa 1c1c7 cells, 200 μM kynurenic acid, 20 hours, read-out: AHR Antagonism Mouse IC50
row,SMILES,pIC50
1,"CCCC[C@H](Nc1nc2ccccc2c2nc(-c3ccccc3OC(F)(F)F)nn12)C(N)=O [Example 467, N^2-{2-[2-(trifluoromethoxy)phenyl][1,2,4]triazolo[1,5-c]quinazolin-5-yl}norleucinamide]",7.48
2,"O=C1NCCCC[C@H]1Nc1nc2ccccc2c2nc(-c3cc(Cl)ccc3OC(F)(F)F)nn12 [Example 497, (3R)-3-({2-[5-chloro-2-(trifluoromethoxy)phenyl][1,2,4]triazolo[1,5-c]quinazolin-5-yl}amino)azepan-2-one]",7.24
3,"CCCNC(=O)[C@@H](C)Nc1nc2ccccc2c2nc(-c3cc(Cl)ccc3OC(F)(F)F)nn12 [Example 502, N^2-{2-[5-chloro-2-(trifluoromethoxy)phenyl][1,2,4]triazolo[1,5-c]quinazolin-5-yl}-N-propyl-D-alaninamide]",6.71
4,"O=C1NCCC[C@H]1Nc1nc2ccccc2c2nc(-c3ccc(Cl)cc3OC(F)F)nn12 [Example 527, (3R)-3-({2-[4-chloro-2-(difluoromethoxy)phenyl][1,2,4]triazolo[1,5-c]quinazolin-5-yl}amino)piperidin-2-one]",8.26
5,"CC[C@H](Nc1nc2ccccc2c2nc(-c3ccc(Cl)cc3OC(F)F)nn12)C(N)=O [Example 532, (2S)-2-({2-[4-chloro-2-(difluoromethoxy)phenyl][1,2,4]triazolo[1,5-c]quinazolin-5-yl}amino)butanamide]",7.97
6,"COc1ccc(-c2nc3c4cc(C(F)(F)F)ccc4nc(N[C@@H]4CCCCNC4=O)n3n2)cc1 [Example 545, (3R)-3-{[2-(4-methoxyphenyl)-9-(trifluoromethyl)[1,2,4]triazolo[1 ,5-c]quinazolin-5-yl]amino}azepan-2-one]",< 4.70
7,"COc1ccc(-c2nc3c4cccc(Cl)c4nc(N[C@@H]4CCCCNC4=O)n3n2)cc1 [Example 553, (3R)-3-{[7-chloro-2-(4-methoxyphenyl)[1,2,4]triazolo[1,5-c]quinazolin-5-yl]amino}azepan-2-one]",8.93
8,"COc1ccc(-c2nc3c4cccc(C(F)(F)F)c4nc(N[C@H]4CCCCNC4=O)n3n2)cc1 [Example 582, (3S)-3-{[2-(4-methoxyphenyl)-7-(trifluoromethyl)[1,2,4]triazolo[1,5-c]quinazolin-5-yl]amino}azepan-2-one]",7.36
9,"O=C1NCCCC[C@H]1Nc1nc2c(Br)cc(Br)cc2c2nc(-c3ccc(F)cc3)nn12 [Example 591, (3R)-3-{[7,9-dibromo-2-(4-fluorophenyl)[1,2,4]triazolo[1,5-c]quinazolin-5-yl]amino}azepan-2-one]",5.62

# Continued, values first:
row,pIC50,SMILES
1,7.09,"COc1ccc(-c2nc3c4cc(Br)cc(Br)c4nc(N[C@@H]4CCCCNC4=O)n3n2)cc1 [Example 593, (3R)-3-{[7,9-dibromo-2-(4-methoxyphenyl)[1,2,4]triazolo[1,5-c]quinazolin-5-yl]amino}azepan-2-one]"
2,9.03,"O=C1NCCCC[C@H]1Nc1nc2ccccc2c2nc(-c3ccc(F)nc3)nn12 [Example 639, (3R)-3-{[2-(6-fluoropyridin-3-yl)[1,2,4]triazolo[1,5-c]quinazolin-5-yl]amino}azepan-2-one]"
3,7.52,"COc1ccc(-c2nc3c4ccccc4nc(N[C@@H]4CN(C)CCNC4=O)n3n2)cc1 [Example 656, (6R)-6-{[2-(4-methoxyphenyl)[1,2,4]triazolo[1,5-c]quinazolin-5-yl]amino}-1-methyl-1,4-diazepan-5-one]"
4,6.35,"COc1ccc(-c2nc3c4ccccc4nc(N[C@H](C)C(=O)O)n3n2)cc1 [Example 658, N-[2-(4-methoxyphenyl)[1,2,4]triazolo[1,5-c]quinazolin-5-yl]-D-alanine]"
5,9.13,"N#Cc1ccc(-c2nc3c4cccc(C(F)(F)F)c4nc(N[C@@H]4CCCCNC4=O)n3n2)cc1 [Example 671, 4-[5-{[(3R)-2-oxoazepan-3-yl]amino}-7-(trifluoromethyl)[1,2,4]triazolo[1,5-c]quinazolin-2-yl]benzonitrile]"
6,8.36,"O=C1NCCCC[C@H]1Nc1nc2c(C(F)(F)F)cccc2c2nc(-c3ccc(Cl)cc3OC(F)(F)F)nn12 [Example 672, (3R)-3-({2-[4-chloro-2-(trifluoromethoxy)phenyl]-7-(trifluoromethyl)[1,2,4]triazolo[1,5-c]quinazolin-5-yl}amino)azepan-2-one]"

# Same assay, conditions: read-out: AHR Antagonism Mouse IC50, Hepa 1c1c7 cells, 200 μM kynurenic acid, 20 hours, firefly luciferase reporter
row,SMILES,pIC50
1,"C[C@@H](Nc1nc2ccccc2c2nc(-c3ccccc3OC(F)(F)F)nn12)C(=O)NCCN(C)C [Example 791, formic acid-N-[2-(dimethylamino)ethyl]-N^2-{2-[2-(trifluoromethoxy)phenyl][1,2,4]triazolo[1,5-c]quinazolin-5-yl}-D-alaninamide (1/1)]",6.58
